In patent US20060069132A1, “Azolecarboxamide herbicides” (priority 2004, published 2006):
Where two headings read alike, the source gives them in different places.

Columns and labels:
barnyardgrass [1] = experiment: Test B pre-/postemergence herbicide test; assay type: in vivo, Echinochloa crus-galli; details: Echinochloa crus-galli, pre-emergence, 0 = no effect, 100 = complete control
Summary of the method: (§1)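 Seeds were planted and treated preemergence with compounds formulated in a non-phytotoxic solvent mixture containing surfactant, while plants at the 1- to 4-leaf stage (2 to 18 cm) received postemergence sprays. Flooded paddy plants were grown to the 2-leaf stage. After 13 to 15 days in a greenhouse, injury was visually rated 0–100 against untreated controls.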

cocklebur = experiment: Test B pre-/postemergence herbicide test; assay type: in vivo, Xanthium strumarium; details: Xanthium strumarium; for pest or weed control at 125 g/ha: 125 g ai/ha; for pest or weed control at 500 g/ha: 500 g ai/ha
Summary of the method: as §1

ducksalad = experiment: Test B flooded paddy test; assay type: in vivo, Heteranthera limosa; details: Heteranthera limosa, 336 h, 1000 g ai/ha, scale 0 to 100 (0 no effect, 100 complete control), read-out: Ducksalad plant response rating
Summary of the method: (§2)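 Postemergence plants were sprayed with formulated test chemicals at 2 to 18 cm height (1- to 4-leaf stage); paddy species were grown to the 2-leaf stage. After 13 to 15 days in a greenhouse, injury was rated visually against untreated controls on a 0–100 scale (0 = no effect, 100 = complete control).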

velvetleaf = experiment: Test B pre-/postemergence herbicide test; assay type: in vivo, Abutilon theophrasti; details: Abutilon theophrasti, 336 h; for pest or weed control at 125 g/ha: 125 g ai/ha; for pest or weed control at 500 g/ha: 500 g ai/ha
Summary of the method: (§3)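 Plants compared with untreated controls 13–15 days post-treatment and given a visual 0–100 injury score. Applications: preemergence to seeds; postemergence at 1- to 4-leaf (2–18 cm); paddy species flooded, 2-leaf stage. Vehicle non-phytotoxic, surfactant included.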

large crabgrass = experiment: Test B pre-/postemergence herbicide test; assay type: in vivo, Digitaria sanguinalis; details: Digitaria sanguinalis; for pest or weed control at 125 g/ha: 125 g ai/ha; for pest or weed control at 500 g/ha: 500 g ai/ha
Summary of the method: as §3

rice = experiment: Test B flooded paddy test; assay type: in vivo, Oryza sativa; details: Oryza sativa, 336 h, 1000 g ai/ha, scale 0 to 100 (0 no effect, 100 complete control), read-out: Rice plant response rating
Summary of the method: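 Formulated test chemicals went onto postemergence plants measuring 2 to 18 cm, at one to four leaves. For the paddy assay, species had reached two leaves. Scoring took place 13–15 days later by eye, relative to untreated plants, using 0 for no effect up to 100 for full control.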

[2] = test system: small flower umbrella sedge; experiment: Test B flooded paddy test; assay type: in vivo, Cyperus difformis; details: Cyperus difformis, 336 h, 1000 g ai/ha, scale 0 to 100 (0 no effect, 100 complete control), read-out: Sedge, Umbrella plant response rating
Summary of the method: as §2

Surinam grass = experiment: Test B pre-/postemergence herbicide test; assay type: in vivo, Urochloa decumbens; details: Urochloa decumbens; for pest or weed control at 125 g/ha: 125 g ai/ha; for pest or weed control at 500 g/ha: 500 g ai/ha
Summary of the method: as §3

giant foxtail = experiment: Test B pre-/postemergence herbicide test; assay type: in vivo, Setaria faberi; details: Setaria faberi, 336 h; for pest or weed control at 125 g/ha: 125 g ai/ha; for pest or weed control at 500 g/ha: 500 g ai/ha
Summary of the method: as §3

morningglory = experiment: Test B pre-/postemergence herbicide test; assay type: in vivo, Ipomoea coccinea; details: Ipomoea, 336 h; for pest or weed control at 125 g/ha: 125 g ai/ha; for pest or weed control at 500 g/ha: 500 g ai/ha
Summary of the method: as §1

pigweed = experiment: Test B pre-/postemergence herbicide test; assay type: in vivo, Amaranthus retroflexus; details: Amaranthus retroflexus, 336 h; for pest or weed control at 125 g/ha: 125 g ai/ha; for pest or weed control at 500 g/ha: 500 g ai/ha
Summary of the method: as §3

lambsquarters = experiment: Test B pre-/postemergence herbicide test; assay type: in vivo, Chenopodium album; details: Chenopodium album, 336 h; for pest or weed control at 125 g/ha: 125 g ai/ha; for pest or weed control at 500 g/ha: 500 g ai/ha
Summary of the method: as §3

wheat = experiment: Test B postemergence herbicide test; assay type: in vivo, Triticum aestivum; details: Triticum aestivum, post-emergence, 336 h, postemergence, visual rating, scale 0 (no effect) to 100 (complete control), read-out: Wheat plant response rating
Summary of the method: as §2

barnyardgrass [3] = experiment: Test B flooded paddy test; assay type: in vivo, Echinochloa crus-galli; details: Echinochloa crus-galli, 336 h, 1000 g ai/ha, scale 0 to 100 (0 no effect, 100 complete control), read-out: Barnyardgrass plant response rating
Summary of the method: as §2

wild oat = experiment: Test B postemergence herbicide test; assay type: in vivo, Avena fatua; details: Avena fatua, post-emergence, 336 h, postemergence, visual rating, scale 0 (no effect) to 100 (complete control), read-out: Oat, Wild plant response rating
Summary of the method: as §2

[4] = post-emergence, postemergence, visual rating, scale 0 (no effect) to 100 (complete control), read-out: Cocklebur plant response rating
[5] = post-emergence, postemergence, visual rating, scale 0 (no effect) to 100 (complete control), read-out: Velvetleaf plant response rating
[6] = post-emergence, postemergence, visual rating, scale 0 (no effect) to 100 (complete control), read-out: Crabgrass, Large plant response rating
[7] = post-emergence, postemergence, visual rating, scale 0 (no effect) to 100 (complete control), read-out: Surinam Grass plant response rating
[8] = post-emergence, postemergence, visual rating, scale 0 (no effect) to 100 (complete control), read-out: Foxtail, Giant plant response rating
[9] = post-emergence, postemergence, visual rating, scale 0 (no effect) to 100 (complete control), read-out: Morningglory plant response rating
[10] = post-emergence, postemergence, visual rating, scale 0 (no effect) to 100 (complete control), read-out: Pigweed plant response rating
[11] = post-emergence, postemergence, visual rating, scale 0 (no effect) to 100 (complete control), read-out: Lambsquarters plant response rating

## CCn1nc(C(C)(C)C)cc1C(=O)Nc1ccc(F)c(C(=O)N(C)C)c1 [Compound 236, N-[3-[(dimethylamino)carbonyl]-4-fluorophenyl]-3-(1,1-dimethylethyl)-1-ethyl-1H-pyrazole-5-carboxamide]
Barnyardgrass [1]; 125 g ai/ha, read-out: Barnyardgrass plant response rating (0 to 100 scale)
  pest or weed control at 125 g/ha: 50%
Barnyardgrass [1]; 500 g ai/ha, visual rating, read-out: Plant response rating, Barnyardgrass
  pest or weed control at 500 g/ha: 90%
cocklebur; [4]
  pest or weed control at 125 g/ha: 20%
  pest or weed control at 500 g/ha: 40%
cocklebur; pre-emergence, 0 = no effect, 100 = complete control, read-out: Cocklebur plant response rating (0 to 100 scale)
  pest or weed control at 125 g/ha: 0%
cocklebur; pre-emergence, visual rating, 0 = no effect, 100 = complete control, read-out: Plant response rating, Cocklebur
  pest or weed control at 500 g/ha: 20%
ducksalad
  pest or weed control at 1000 g/ha: 90%
velvetleaf; [5]
  pest or weed control at 125 g/ha: 20%
  pest or weed control at 500 g/ha: 50%
velvetleaf; pre-emergence, 0 = no effect, 100 = complete control, read-out: Velvetleaf plant response rating (0 to 100 scale)
  pest or weed control at 125 g/ha: 20%
velvetleaf; pre-emergence, visual rating, 0 = no effect, 100 = complete control, read-out: Plant response rating, Velvetleaf
  pest or weed control at 500 g/ha: 80%
Large crabgrass; [6]
  pest or weed control at 125 g/ha: 0%
  pest or weed control at 500 g/ha: 20%
Large crabgrass; pre-emergence, 0 = no effect, 100 = complete control, read-out: Crabgrass, Large plant response rating (0 to 100 scale)
  pest or weed control at 125 g/ha: 30%
Large crabgrass; pre-emergence, visual rating, 0 = no effect, 100 = complete control, read-out: Plant response rating, Crabgrass, Large
  pest or weed control at 500 g/ha: 70%
rice
  plant injury at 1000 g/ha: 70%
[2]
  pest or weed control at 1000 g/ha: 80%
Surinam grass; [7]
  pest or weed control at 125 g/ha: 0%
  pest or weed control at 500 g/ha: 20%
Surinam grass; pre-emergence, 0 = no effect, 100 = complete control, read-out: Surinam Grass plant response rating (0 to 100 scale)
  pest or weed control at 125 g/ha: 20%
Surinam grass; pre-emergence, visual rating, 0 = no effect, 100 = complete control, read-out: Plant response rating, Surinam Grass
  pest or weed control at 500 g/ha: 60%
Giant foxtail; [8]
  pest or weed control at 125 g/ha: 10%
  pest or weed control at 500 g/ha: 40%
Giant foxtail; pre-emergence, 0 = no effect, 100 = complete control, read-out: Foxtail, Giant plant response rating (0 to 100 scale)
  pest or weed control at 125 g/ha: 10%
Giant foxtail; pre-emergence, visual rating, 0 = no effect, 100 = complete control, read-out: Plant response rating, Foxtail, Giant
  pest or weed control at 500 g/ha: 50%
morningglory; [9]
  pest or weed control at 125 g/ha: 10%
  pest or weed control at 500 g/ha: 60%
morningglory; pre-emergence, 0 = no effect, 100 = complete control, read-out: Morningglory plant response rating (0 to 100 scale)
  pest or weed control at 125 g/ha: 0%
morningglory; pre-emergence, visual rating, 0 = no effect, 100 = complete control, read-out: Plant response rating, Morningglory
  pest or weed control at 500 g/ha: 20%
pigweed; [10]
  pest or weed control at 125 g/ha: 60%
  pest or weed control at 500 g/ha: 70%
pigweed; pre-emergence, 0 = no effect, 100 = complete control, read-out: Pigweed plant response rating (0 to 100 scale)
  pest or weed control at 125 g/ha: 30%
pigweed; pre-emergence, visual rating, 0 = no effect, 100 = complete control, read-out: Plant response rating, Pigweed
  pest or weed control at 500 g/ha: 90%
lambsquarters; [11]
  pest or weed control at 125 g/ha: 60%
  pest or weed control at 500 g/ha: 70%
lambsquarters; pre-emergence, 0 = no effect, 100 = complete control, read-out: Lambsquarters plant response rating (0 to 100 scale)
  pest or weed control at 125 g/ha: 50%
lambsquarters; pre-emergence, visual rating, 0 = no effect, 100 = complete control, read-out: Plant response rating, Lambsquarters
  pest or weed control at 500 g/ha: 100%
wheat; 125 g ai/ha
  plant injury at 125 g/ha: 10%
wheat; 500 g ai/ha
  plant injury at 500 g/ha: 20%
Barnyardgrass [3]
  pest or weed control at 1000 g/ha: 80%
Wild oat; 125 g ai/ha
  pest or weed control at 125 g/ha: 20%
Wild oat; 500 g ai/ha
  pest or weed control at 500 g/ha: 20%
